Columns and labels:
[1] = target: MAGL (Mus musculus (Mouse), UniProt O35678); experiment: Mouse brain proteomes from inhibitor treated mice (oral gavage, ABPP analysis); format: in vivo; conditions: 5 mg/kg oral gavage, 4 h after administration, read-out: MAGL % inh. 5 mg/kg (mouse)
Procedure: Preparation of Mouse Brain Proteomes from Inhibitor Treated Mice
Inhibitors were administered to wild-type C57Bl/6J by oral gavage in a vehicle of polyethylene glycol.

[2] = target: MAGL (Homo sapiens (Human), UniProt Q99685); experiment: In vitro competitive activity-based protein profiling (human proteomes); format: biochemical; conditions: human proteome; for inhibition at 1 µM: 1 μM inhibitor, read-out: MAGL % inh. 1 μM (human)
Procedure: In Vitro Competitive Activity-Based Protein Profiling
Proteomes (mouse brain membrane fraction or cell lysates for mouse assays; human prefrontal cortex or cell membrane fractions for human assays) (50 μL, 1.0 mg/mL total protein concentration) were preincubated with varying concentrations of inhibitors at 37° C. After 30 min, FP—Rh or HT-01 (1.0 μL, 50 μM in DMSO) was added and the mixture was incubated for another 30 min at 37° C. Reactions were quenched with SDS loading buffer (15 μL—4×) and run on SDS-PAGE.

MAGL (Mus musculus (Mouse), UniProt O35678), sequence (O35678 whole entry): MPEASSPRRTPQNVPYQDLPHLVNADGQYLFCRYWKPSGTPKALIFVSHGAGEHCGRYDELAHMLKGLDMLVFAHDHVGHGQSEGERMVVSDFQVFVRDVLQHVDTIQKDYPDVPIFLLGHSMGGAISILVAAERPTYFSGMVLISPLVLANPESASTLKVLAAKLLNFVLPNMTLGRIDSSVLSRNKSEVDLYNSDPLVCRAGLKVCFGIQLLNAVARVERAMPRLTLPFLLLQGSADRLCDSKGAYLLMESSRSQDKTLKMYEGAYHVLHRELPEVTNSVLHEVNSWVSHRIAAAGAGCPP
MAGL (Homo sapiens (Human), UniProt Q99685), sequence (Q99685 whole entry): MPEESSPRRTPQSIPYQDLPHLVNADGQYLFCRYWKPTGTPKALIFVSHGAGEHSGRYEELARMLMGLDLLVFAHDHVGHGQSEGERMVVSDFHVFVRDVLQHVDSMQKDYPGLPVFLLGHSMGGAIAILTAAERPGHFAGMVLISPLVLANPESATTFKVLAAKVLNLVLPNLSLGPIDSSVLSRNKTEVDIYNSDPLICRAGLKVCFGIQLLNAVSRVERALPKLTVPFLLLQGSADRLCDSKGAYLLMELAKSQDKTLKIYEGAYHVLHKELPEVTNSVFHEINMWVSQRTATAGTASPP

Row | SMILES | inhibition at 5 mg/kg [1] | inhibition at 1 µM [2] | IC50 [2] | inhibition at 10 µM ([2]; 10 μM inhibitor, read-out: MAGL % inh. (human) @ 10 μM)
1 | CC(C)(COc1cc(CN2CCN(C(=O)OC(C(F)(F)F)C(F)(F)F)CC2)cc(C(F)(F)F)c1)C(=O)O [Example 5, 3-(3-((4-(((1,1,1,3,3,3-Hexafluoropropan-2-yl)oxy)carbonyl)piperazin-1-yl)methyl)-5-(trifluoromethyl)phenoxy)-2,2-dimethylpropanoic acid] | > 75% | > 75% | < 50 nM | –
2 | CC(C)(Oc1cc(C(F)(F)F)ccc1CN1CCN(C(=O)OC(C(F)(F)F)C(F)(F)F)CC1)C(=O)NS(=O)(=O)C1CC1 [Example 6, 1,1,1,3,3,3-Hexafluoropropan-2-yl 4-(2-((1-(cyclopropanesulfonamido)-2-methyl-1-oxopropan-2-yl)oxy)-4-(trifluoromethyl)benzyl)piperazine-1-carboxylate] | 0 to 25% | > 75% | < 50 nM | –
3 | O=C(O)COc1c(F)cccc1CN1CCN(C(=O)OC(C(F)(F)F)C(F)(F)F)CC1 [Example 11, 2-(2-Fluoro-6-((4-(((1,1,1,3,3,3-hexafluoropropan-2-yl)oxy)carbonyl)piperazin-1-yl)methyl)phenoxy)acetic acid] | – | 50 to 75% | – | –
4 | CCOC(=O)OC(C)OC(=O)C(C)(C)Oc1cc(C(F)(F)F)ccc1CN1CCN(C(=O)OC(C(F)(F)F)C(F)(F)F)CC1 (stereo not drawn) [Example 12, 1,1,1,3,3,3-Hexafluoropropan-2-yl 4-(2-((1-(1-((ethoxycarbonyl)oxy)ethoxy)-2-methyl-1-oxopropan-2-yl)oxy)-4-(trifluoromethyl)benzyl)piperazine-1-carboxylate] | – | > 75% | – | –
5 | CC(OC(=O)C(C)C)OC(=O)C(C)(C)Oc1cc(C(F)(F)F)ccc1CN1CCN(C(=O)OC(C(F)(F)F)C(F)(F)F)CC1 (stereo not drawn) [Example 13, 1,1,1,3,3,3-Hexafluoropropan-2-yl 4-(2-((1-(1-(isobutyryloxy)ethoxy)-2-methyl-1-oxopropan-2-yl)oxy)-4-(trifluoromethyl)benzyl)piperazine-1-carboxylate] | – | > 75% | – | –
6 | O=C(O)COc1cc(CN2CCN(C(=O)OC(C(F)(F)F)C(F)(F)F)CC2)cc(OC(F)(F)F)c1 [Example 44, 2-(3-((4-(((1,1,1,3,3,3-Hexafluoropropan-2-yl)oxy)carbonyl)piperazin-1-yl)methyl)-5-(trifluoromethoxy)phenoxy) acetic acid] | – | > 75% | < 50 nM | –
7 | CC(C)(C)C(=O)OCOC(=O)C(C)(C)Oc1cc(C(F)(F)F)ccc1CN1CCN(C(=O)OC(C(F)(F)F)C(F)(F)F)CC1 [Example 49, 1,1,1,3,3,3-Hexafluoropropan-2-yl 4-(2-((2-methyl-1-oxo-1-((pivaloyloxy)methoxy)propan-2-yl)oxy)-4-(trifluoromethyl)benzyl) piperazine-1-carboxylate] | – | > 75% | – | –
8 | CC(C)OC(=O)OC(C)OC(=O)C(C)(C)Oc1cc(C(F)(F)F)ccc1CN1CCN(C(=O)OC(C(F)(F)F)C(F)(F)F)CC1 (stereo not drawn) [Example 51, 1,1,1,3,3,3-Hexafluoropropan-2-yl 4-(2-((1-(1-((isopropoxycarbonyl)oxy)ethoxy)-2-methyl-1-oxopropan-2-yl)oxy)-4-(trifluoromethyl)benzyl) piperazine-1-carboxylate] | – | > 75% | – | –

Now from value to compound:

Row | inhibition at 5 mg/kg [1] | inhibition at 1 µM [2] | IC50 [2] | inhibition at 10 µM ([2]; 10 μM inhibitor, read-out: MAGL % inh. (human) @ 10 μM) | SMILES
9 | 0 to 25% | > 75% | < 50 nM | – | CC(C)(Oc1cc(Cl)ccc1CN1CCN(C(=O)OC(C(F)(F)F)C(F)(F)F)CC1)C(=O)O [Example 1, 2-(5-Chloro-2-((4-(((1,1,1,3,3,3-hexafluoropropan-2-yl)oxy)carbonyl)piperazin-1-yl)methyl)phenoxy)-2-methylpropanoic acid]
10 | > 75% | > 75% | < 50 nM | – | CC(C)(Oc1c(CN2CCN(C(=O)OC(C(F)(F)F)C(F)(F)F)CC2)cccc1C(F)(F)F)C(=O)O [Example 2, 2-(2-((4-(((1,1,1,3,3,3-Hexafluoropropan-2-yl)oxy)carbonyl)piperazin-1-yl)methyl)-6-(trifluoromethyl)phenoxy)-2-methylpropanoic acid]
11 | > 75% | > 75% | < 50 nM | – | CC(C)(Oc1cc(C(F)(F)F)ccc1CN1CCN(C(=O)OC(C(F)(F)F)C(F)(F)F)CC1)C(=O)O [Example 3, 2-(2-((4-(((1,1,1,3,3,3-Hexafluoropropan-2-yl)oxy)carbonyl)piperazin-1-yl)methyl)-5-(trifluoromethyl)phenoxy)-2-methylpropanoic acid]
12 | > 75% | > 75% | < 50 nM | – | CC(C)(COc1cc(C(F)(F)F)ccc1CN1CCN(C(=O)OC(C(F)(F)F)C(F)(F)F)CC1)C(=O)O [Example 4, 3-(2-((4-(((1,1,1,3,3,3-Hexafluoropropan-2-yl)oxy)carbonyl)piperazin-1-yl)methyl)-5-(trifluoromethyl)phenoxy)-22-dimethylpropanoic acid]
13 | 50 to 75% | > 75% | < 50 nM | – | Cc1ccc(CN2CCN(C(=O)OC(C(F)(F)F)C(F)(F)F)CC2)c(OC(C)(C)C(=O)O)c1Cl [Example 17, 2-(2-Chloro-6-((4-(((1,1,1,3,3,3-hexafluoropropan-2-yl)oxy)carbonyl)piperazin-1-yl)methyl)-3-methylphenoxy)-2-methylpropanoic acid]
14 | – | > 75% | < 50 nM | – | CC(C)(Oc1cc(C#N)ccc1CN1CCN(C(=O)OC(C(F)(F)F)C(F)(F)F)CC1)C(=O)O [Example 26, 2-(5-Cyano-2-((4-(((1,1,1,3,3,3-hexafluoropropan-2-yl)oxy)carbonyl)piperazin-1-yl)methyl)phenoxy)-2-methylpropanoic acid]
15 | – | – | – | > 75% | COc1ccc(OC(C)(C)C(=O)O)cc1CN1CCN(C(=O)OC(C(F)(F)F)C(F)(F)F)CC1 [Example 35, 2-(3-((4-(((1,1,1,3,3,3-Hexafluoropropan-2-yl)oxy)carbonyl)piperazin-1-yl)methyl)-4-methoxyphenoxy)-2-methylpropanoic acid]
16 | – | > 75% | – | – | C[C@@H](Oc1cc(C#N)ccc1CN1CCN(C(=O)OC(C(F)(F)F)C(F)(F)F)CC1)C(=O)O [Example 45, (R)-2-(5-Cyano-2-((4-(((1,1,1,3,3,3-hexafluoropropan-2-yl)oxy)carbonyl)piperazin-1-yl)methyl)phenoxy) propanoic acid]
17 | – | > 75% | – | – | C[C@H](Oc1cc(C#N)ccc1CN1CCN(C(=O)OC(C(F)(F)F)C(F)(F)F)CC1)C(=O)O [Example 46, (S)-2-(5-Cyano-2-((4-(((1,1,1,3,3,3-hexafluoropropan-2-yl)oxy)carbonyl)piperazin-1-yl)methyl)phenoxy) propanoic acid]
18 | – | > 75% | < 50 nM | – | CC(C)(Oc1cc(CN2CCN(C(=O)OC(C(F)(F)F)C(F)(F)F)CC2)cc(C(F)(F)F)c1)C(=O)O [Example 47, 2-(3-((4-(((1,1,1,3,3,3-Hexafluoropropan-2-yl)oxy)carbonyl)piperazin-1-yl)methyl)-5-(trifluoromethyl)phenoxy)-2-methylpropanoic acid]
19 | > 75% | > 75% | < 50 nM | – | Cc1ccc(CN2CCN(C(=O)OC(C(F)(F)F)C(F)(F)F)CC2)c(OCC(C)(C)C(=O)O)c1F [Example 48, 3-(2-Fluoro-6-((4-(((1,1,1,3,3,3-hexafluoropropan-2-yl)oxy)carbonyl)piperazin-1-yl)methyl)-3-methylphenoxy)-2,2-dimethylpropanoic acid]
20 | – | > 75% | – | – | CCOC(=O)C(C)(C)Oc1cc(C(F)(F)F)ccc1CN1CCN(C(=O)OC(C(F)(F)F)C(F)(F)F)CC1 [Example 50, 1,1,1,3,3,3-Hexafluoropropan-2-yl 4-(2-((1-ethoxy-2-methyl-1-oxopropan-2-yl)oxy)-4-(trifluoromethyl)benzyl) piperazine-1-carboxylate]
